Holding throughout (assay type): cell-based
Test [1] has as its system Candida albicans ATCC 10231. Nature of the test: Skin antiseptic b): quantitative suspension test according to DGHM. The following applies: 1.0% 8, formulation 1-propanol 15.0%, 2-propanol 30.0%. An excerpt: (§1) • 1-propanol 15.0% • 2-propanol 30.0% • aromatic alcohol 1.0% • dem. water to 100 [table]
Test [2] relates to Pseudomonas aeruginosa ATCC 15442. The description is as above. The following applies: 1.0% 8, formulation 1-propanol 15.0%, 2-propanol 30.0%.
Source text: as §1

In test [3] the test system is Staphylococcus aureus ATCC 6538. The description is as above. The following applies: 1.0% 8, formulation 1-propanol 15.0%, 2-propanol 30.0%.
Source text: as §1

In the next test the test system is Ps. aeruginosa. The experiment in a line: Quantitative surface test according to DGHM, alcoholic surface disinfectant. The following applies: additive (0.05% for single substances) in ethanol 25.0 % / 1-propanol 35.0 % formulation, germs deposited after approx. 20 minutes. The text has this: Standard formulation: • ethanol (MEK denatured) 25.0 % • 1-propanol 35.0 % • perfume 0.02 % • benzotriazole 0.001 % • Marlipal 013/70 0.1% (isotridecanpolyethyleneglycol-(7)-ether = C13 oxo alcohol + 7 mol ethylene oxide) • active ingredient additive x% • dem. water to 100 Test germ: Ps. aeruginosa Test method:
Quantitative surface test according to DGHM (Deutsche Gesellschaft für Hygiene and Microbiology = German Association for Hygiene and Microbiology). In order to exclude the effectiveness of the readily volatile alcohol components (ethanol, 1-propanol), the preparations were deposited onto the surfaces and the germs were deposited after approx. 20 minutes. Test surfaces: PVC and OP tiles Data as reduction factors (log stages)

Test [4] deals with Germ mixture of Staphylococcus aureus, Staphylococcus epidermis, Escherichia coli, Klebsiella pneumoniae, Enterobacter gergoviae, Pseudomonas aeruginosa …. The experiment in a line: Preservative test: weekly loading of the sample with germ suspension. The following applies: aromatic alcohol 0.5% in sulfosuccinate 12.0% / betaine 3.0% formulation. An excerpt:
Standard formulation: • sulfosuccinate 12.0% • betaine 3.0% • aromatic alcohol 0.5% • re-fatting agent • skin care additives • thickener • dem. water to 100 Test germs: Germ mixture of Staphylococcus aureus, Staphylococcus epidermis, Escherichia coli, Klebsiella pneumoniae, Enterobacter gergoviae, Pseudomonas aeruginosa, Pseudomonas fluorescens, Pseudomonas putida, Aspergillus niger, Penicillium funiculosum, Candida albicans; Total germ count 10^8-10^9/ml. Test method: weekly loading of the sample with germ suspension; smear onto CS and Sabouraud agar. See also K.-H. Diehl, P. Oltmanns, J. Ramsbotham, Seife, Öle, Fette, Wachse 118 (1992) 546.
Data expressed semi-qualitatively: • - no growth < 10^2 CFU/g (CFU = colony-forming units) • + slight growth approx. 10^3 CFU/g • ++ moderate growth approx. 10^4-10^5 CFU/g • +++ heavy growth > 10^5 CFU/g

Regarding `CCCCCC(=Cc1ccccc1)CO` [Alcohol 8, α-amyl cinnamyl alcohol], the “reduction factors (log stages)” value in test [1] (column 25, contact time 1') is reported as 0.6 log stages; in test [1] (column 25, contact time 2') it was 1.1 log stages; in test [1] (column 25, contact time 5'), 1.7 log stages; in test [1] (column 25, contact time 30") it was 0.5 log stages; in test [1] (column 50, contact time 1'), 3.5 log stages; in test [1] (column 50, contact time 2'), more than 4.9 log stages. Also, the “reduction factors (log stages)” value in test [1] (column 50, contact time 5') is given as more than 5.1 log stages; in test [1] (column 50, contact time 30") it was 2.7 log stages; in test [1] (column 75, contact time 1'), more than 4.6 log stages; in test [1] (column 75, contact time 2') it was more than 4.9 log stages; in test [1] (column 75, contact time 5'), more than 5.1 log stages; in test [1] (column 75, contact time 30"), more than 4.6 log stages. In addition, the “reduction factors (log stages)” value in test [2] (column 25, contact time 1') was 0 log stages; in test [2] (column 25, contact time 2'), 0 log stages; in test [2] (column 25, contact time 5'), 0 log stages; in test [2] (column 25, contact time 30"), 0 log stages; in test [2] (column 50, contact time 1'), more than 5.8 log stages; in test [2] (column 50, contact time 2'), more than 5.7 log stages. The “reduction factors (log stages)” value is given as more than 5.7 log stages in test [2] (column 50, contact time 5'); more than 5.6 log stages in test [2] (column 50, contact time 30"); more than 5.8 log stages in test [2] (column 75, contact time 1'); more than 5.7 log stages in test [2] (column 75, contact time 2'); more than 5.7 log stages in test [2] (column 75, contact time 5'); more than 5.6 log stages in test [2] (column 75, contact time 30"). Further, the “reduction factors (log stages)” value in test [3] (column 25, contact time 1') is recorded as 3.6 log stages; in test [3] (column 25, contact time 2'), 4.7 log stages; in test [3] (column 25, contact time 5') it was more than 5.8 log stages; in test [3] (column 25, contact time 30"), 2.8 log stages; in test [3] (column 50, contact time 1'), more than 5.5 log stages; in test [3] (column 50, contact time 2') it was more than 5.9 log stages. Moreover, the “reduction factors (log stages)” value in test [3] (column 50, contact time 5') is more than 5.8 log stages; in test [3] (column 50, contact time 30") it was more than 5.6 log stages; in test [3] (column 75, contact time 1') it was more than 5.5 log stages; in test [3] (column 75, contact time 2') it was more than 5.9 log stages; in test [3] (column 75, contact time 5'), more than 5.8 log stages; in test [3] (column 75, contact time 30"), more than 5.6 log stages.

As for `OCCCc1ccccc1` [Alcohol 1, 3-phenyl propanol, reference compound], the “reduction factors (log stages)” value in the test on Ps. aeruginosa (PVC, 30') stood at 0 log stages; in the test on Ps. aeruginosa (PVC, 60'), 0 log stages; in the test on Ps. aeruginosa (PVC, 240'), 0 log stages; with Ps. aeruginosa (Tiles, 30'), 0 log stages; with Ps. aeruginosa (Tiles, 60'), 0 log stages; in the test on Ps. aeruginosa (Tiles, 240'), 0 log stages. The “growth, 1st week” value in test [4] (1st week) is given as “+ (slight growth approx. 10^3 CFU/g)”. Moreover, the “growth, 2nd week” value in test [4] (2nd week) was “+ (slight growth approx. 10^3 CFU/g)”. Besides, in test [4] (3rd week), the “growth, 3rd week” value is given as “- (no growth < 10^2 CFU/g)”. Besides, in test [4] (4th week), the “growth, 4th week” value is “- (no growth < 10^2 CFU/g)”. Besides, the “growth, 5th week” value in test [4] (5th week) is “- (no growth < 10^2 CFU/g)”.

The values are drawn from patent EP0799174B1, “BIOCIDAL ALCOHOLS, THEIR PRODUCTION AND THEIR USE” (SCHÜLKE & MAYR GMBH, priority 1994, dated 1996).
